One series concerns AAMU-Ab. Description: Competitive antigen ELISA, cross-reactivity of AAMU-Ab. It is filed as binding, rabbit. As to conditions: for % Cross-Reaction AAMU-Ab: competitive antigen ELISA, 0 = absence of inhibition or inhibition no higher than 40% at highest concentration tested (5×10^−3 M). As to the method: (§1) Competitive Antigen ELISA
(§2) Buffers and water without additives are filtered through millipore filters and kept for 1 week. BSA, antibodies, Tween™ 20 and horse radish peroxidase conjugates are added to these buffers and water just prior to use. Urine samples are usually collected 4 hours after drinking a cup of coffee (instant or brewed with approximately 100 mg of caffeine per cup) and stored at −80° C. The urine samples are diluted 10 times with sodium phosphate buffer (620 mosm, pH 7.50) and are subsequently diluted with water to give concentrations of AAMU and 1X no higher than 3×10^−6 M in the ELISA. All the pipettings are done with an eight-channel pipette, except those of the antibody and sample solutions. Starting with the last well, 100 μL of a carbonate buffer (100 mM, pH 9.6) containing 2.5 μg mL-1 antibodies are added to each well. After 90 min. at room temperature, the wells are washed three times with […] of TPB: isotonic sodium phosphate buffer (310 mosm, pH 7.50) containing 0.05% Tween™ 20.
(§3) After the initial wash, unoccupied sites are blocked by incubation for 90 min. at room temperature with 100 μL TBP containing 3% BSA. The wells are washed four times with 100 μL TPB. […] The microplate is gently shaken with an orbital shaker at room temperature for 3-4 hours. The wells are washed three times with 100 μL TPB containing 1% BSA and three times with water containing 0.05% Tween™ 20. To the washed plate is added 150 μL of a substrate buffer composed of citric acid (25 mM) and sodium phosphate dibasic buffer (50 mM, pH 5.0) containing 0.06% hydrogen peroxide and 0.04% o-phenylenediamine hydrochloride.
(§4) Buffers and water without additives were filtered through millipore filters and kept for 1 week. BSA, antibodies, Tween™ 20 and horse radish peroxidase conjugates were added to these buffers and water just prior to use. Urine samples were usually collected 4 hours after drinking a cup of coffee (instant or brewed with approximately 100 mg of caffeine per cup) and stored at −80° C. They were diluted 10 times with sodium phosphate buffer (620 mosm, pH 7.50) and were subsequently diluted with water to give concentrations of AAMU and 1X no higher than 3×10^−6 M in the ELISA. All the pipettings were done with an eight-channel pipette, except those of the antibody and sample solutions. Starting with the last well, 100 μL of a carbonate buffer (100 mM, pH 9.6) containing 2.5 μg mL-1 antibodies was pipetted. After 90 min. at room temperature, the wells were washed three times with 100 μL of TPB: isotonic sodium phosphate buffer (310 mosm, pH 7.50) containing 0.05% Tween™ 20.
(§5) After the initial wash, unoccupied sites were blocked by incubation for 90 min. at room temperature with […] TBP containing 3% BSA. The wells were washed four times with 100 μL TPB. […] The microplate was gently shaken with an orbital shaker at room temperature for 3-4 hours. The wells were washed three times with 100 μL with TPB containing 1% BSA and three times with water containing 0.05% Tween™ 20. To the washed plate was added 150 μL of a substrate buffer composed of citric acid (25 mM) and sodium phosphate dibasic buffer (50 mM, pH 5.0) containing 0.06% hydrogen peroxide and 0.04% o-phenylenediamine hydrochloride. After 20 min. at room temperature with shaking, the reaction was stopped with 50 μL of 2.5 N HCl.
(§6) The cross reactivities of AAMU-Ab and 1X-Ab were tested using a wide variety of caffeine metabolites and structural analogs (Table 2 below).
A general note: An ELISA detects its analyte on a solid surface through an enzyme-linked reagent.

The next series concerns 1X-Ab. Description: Competitive antigen ELISA, cross-reactivity of 1X-Ab. As to conditions: for % Cross-Reaction 1X-Ab: competitive antigen ELISA, 0 = absence of inhibition or inhibition no higher than 40% at highest concentration tested (5×10^−3 M). In kind it is binding, rabbit. As to the method: as §1, §2, §3, §4, §5, §6
For series [1] the following is noted: cited from earlier work.
For series [2] the following is noted: healthy volunteers; cited from earlier work.
In the next series the test system is S. pneumoniae. As to conditions: once a day for 10 days, acute bacterial exacerbation of chronic bronchitis; cited from earlier work.
The conditions of series [3]: cited from earlier work. The source holds these as a separate data set.

Where two headings read alike, the source gives them in different places. Marks after values point to notes of the source that are not given here. A value given as a limit tells only on which side of the number the result lay.

With `Cn1c(=O)c2c(ncn2C)n(C)c1=O` [1,3,7-Trimethyl Xanthine (Caffeine), 1,3,7-Trimethyl Xanthine], the “% Cross-Reaction AAMU-Ab” value in the series on AAMU-Ab came out at 0%. Moreover, the “% Cross-Reaction 1X-Ab” value in the series with 1X-Ab was 0%.
For `Cn1c(=O)c2[nH]cnc2n(C)c1=O` [1,3-Dimethyl Xanthine (Theophylline), 1,3-Dimethyl Xanthine], in the series on AAMU-Ab, the “% Cross-Reaction AAMU-Ab” value was found to be 0%. Besides, in the series with 1X-Ab, the “% Cross-Reaction 1X-Ab” value is listed as 0.2%.
In the same order, the values of `Cn1c(=O)[nH]c2ncn(C)c2c1=O` [1,7-Dimethyl Xanthine (Paraxanthine), 1,7-Dimethyl Xanthine] are 0% and 0.5%.
With `Cn1c(=O)[nH]c2[nH]c(=O)n(C)c2c1=O` [1,7-Dimethyluric acid], in the series with AAMU-Ab, the “% Cross-Reaction AAMU-Ab” value turned out to be 0%. In addition, the “% Cross-Reaction 1X-Ab” value with 1X-Ab stood at 0%.
For the molecule `Cn1c(=O)[nH]c2nc[nH]c2c1=O` [1-Methyl Xanthine (1X), 1-Methyl Xanthine], the “% Cross-Reaction AAMU-Ab” value in the series with AAMU-Ab was determined as 0%. Further, in the series on 1X-Ab, the “% Cross-Reaction 1X-Ab” value is on record as 100%. Also, the IC50 with 1X-Ab (read-out: concentration required for 50% inhibition in the competitive antigen ELISA, 1X-Ab, 1X-HRP conjugate) is 10 µM.
As to `Cn1c(=O)[nH]c2[nH]c(=O)[nH]c2c1=O` [1-Methyluric acid], the “% Cross-Reaction AAMU-Ab” value in the series on AAMU-Ab was found to be 0%. Also, the “% Cross-Reaction 1X-Ab” value in the series with 1X-Ab was 11%.
On the same counts, the results for `Cn1cnc2c1c(=O)[nH]c(=O)n2C` [3,7-Dimethyl Xanthine (Theobromine), 3,7-Dimethyl Xanthine] are 0% and 0%.
In the same order, the values of `Cn1c(=O)[nH]c(=O)c2[nH]cnc21` [3-Methyl Xanthine] are 0% and 0%.
Take `CC(=O)Nc1c(N)n(C)c(=O)n(C)c1=O` [5-Acetamino-6-amino-1,3-dimethyluracil]: the “% Cross-Reaction AAMU-Ab” value in the series with AAMU-Ab was determined as 0%. Also, in the series with 1X-Ab, the “% Cross-Reaction 1X-Ab” value worked out at 0%.
For `CC(=O)Nc1c(N)n(C)c(=O)[nH]c1=O` [5-Acetamino-6-amino-1-methyluracil], in the series on AAMU-Ab, the “% Cross-Reaction AAMU-Ab” value was found to be 100%. For the same molecule, in the series with AAMU-Ab (read-out: concentration required for 50% inhibition in the competitive antigen ELISA, AAMU-Ab, AAMU-HRP conjugate), the IC50 amounted to 1500 nM. The “% Cross-Reaction 1X-Ab” value with 1X-Ab is listed as 0%.
Consider `CC(=O)Nc1c(N)[nH]c(=O)[nH]c1=O` [5-Acetamino-6-amino-uracil], for which the “% Cross-Reaction AAMU-Ab” value in the series with AAMU-Ab came out at 0.6%. The “% Cross-Reaction 1X-Ab” value in the series on 1X-Ab turned out to be 0%.
In the same order, the values of `Cn1cnc2[nH]c(=O)[nH]c(=O)c21` [7-Methyl Xanthine] are 0% and 0%.
In the case of `Cc1nc2[nH]c(=O)[nH]c(=O)c2[nH]1` [8-Methyl Xanthine], the “% Cross-Reaction AAMU-Ab” value with AAMU-Ab stood at 0%. Also, the “% Cross-Reaction 1X-Ab” value in the series with 1X-Ab is reported as 0%.
In the case of `CC1(C)S[C@@H]2[C@H](NC(=O)Cc3ccccc3)C(=O)N2[C@H]1C(=O)O.CC1(C)S[C@@H]2[C@H](NC(=O)Cc3ccccc3)C(=O)N2[C@H]1C(=O)O.c1ccc(CNCCNCc2ccccc2)cc1` [Benzathine penicillin G], the “duration of low sustained serum levels of penicillin G” value in series [1] (human, in vivo) is 1-3 weeks.
With `O=C(N[C@H](CO)[C@H](O)c1ccc([N+](=O)[O-])cc1)C(Cl)Cl` [Chloramphenicol], in series [1] (human, in vivo), the “CSF concentrations as % of serum levels” value was 30-50%.
As for `C[C@H]1c2cccc(O)c2C(=O)C2=C(O)[C@]3(O)C(=O)C(C(N)=O)=C(O)[C@@H](N(C)C)[C@@H]3[C@@H](O)[C@@H]21` [Doxycycline], the serum half-life in series [1] (human, in vivo) is 17 to 20 h.
`Cc1c(F)c(N2CCNC(C)C2)cc2c1c(=O)c(C(=O)O)cn2C1CC1` (stereo not drawn) [Grepafloxacin, grepafloxacin]: the “effect on QTc interval” value in series [2] is recorded as “Prolongation of the QTc Intervals has been observed”. The “effectiveness against S. pneumoniae, 400 mg per day vs 600 mg per day” value in the series on S. pneumoniae was “may be less effective”. For the same molecule, the “time to peak plasma drug concentration after dosing” value in series [1] (human, in vivo) is 2 to 3 h. Moreover, the “time to steady state concentrations” value in series [1] (once-a-day dosing) is on record as at most 7 days. For the same molecule, the bioavailability entry in series [1] (oral) is on record as “approximately 70%”.
Regarding `Nc1nc2nc[nH]c2c(=O)[nH]1` [Guanine], in the series on AAMU-Ab, the “% Cross-Reaction AAMU-Ab” value stood at 0%. In the series on 1X-Ab, the “% Cross-Reaction 1X-Ab” value stood at 0%.
As for `O=c1[nH]cnc2nc[nH]c12` [Hypoxanthine], in the series on AAMU-Ab, the “% Cross-Reaction AAMU-Ab” value worked out at 0%. Also, the “% Cross-Reaction 1X-Ab” value with 1X-Ab amounted to 0%.
For `O=c1cc[nH]c(=O)[nH]1` [Uracil], in the series on AAMU-Ab, the “% Cross-Reaction AAMU-Ab” value was 0%. In addition, the “% Cross-Reaction 1X-Ab” value in the series with 1X-Ab is recorded as 0%.
Regarding `O=c1[nH]c(=O)c2[nH]c(=O)[nH]c2[nH]1` [Uric acid], the “% Cross-Reaction AAMU-Ab” value with AAMU-Ab is 0%. Also, the “% Cross-Reaction 1X-Ab” value in the series on 1X-Ab was found to be 0%.
For `O=c1[nH]c(=O)c2[nH]cnc2[nH]1` [Xanthine], in the series with AAMU-Ab, the “% Cross-Reaction AAMU-Ab” value is on record as 0^a %. Besides, in the series on 1X-Ab, the “% Cross-Reaction 1X-Ab” value is given as 0%.
Turning to `Nc1ccc(S(=O)(=O)c2ccc(N)cc2)cc1` [dapsone], the “adverse reactions to dapsone” value in series [3] (fast acetylators) is 17%; in series [3] (slow acetylators), 46%.
